Test results taken from the PolyMetriX glass transition set.
± gives the standard deviation of the reports.

Row | Structure (SMILES) | glass transition temperature [°C]
1 | *COc1ccc(C(C)(C)c2ccc(Oc3ccc(*)n3-c3ccc([N+](=O)[O-])cc3)cc2)cc1 (repeat unit) | 76.8
2 | *c1ccc(Oc2cccc(Oc3ccc(N4C(=O)c5ccc(Oc6ccc(Oc7ccc8c(c7)C(=O)N(*)C8=O)cc6)cc5C4=O)cc3)c2)cc1 (repeat unit) | 199.00
3 | *Oc1ccc(P(C)(=O)c2ccc(Oc3ccc(C(c4ccc(*)cc4)(C(F)(F)F)C(F)(F)F)cc3)cc2)cc1 (repeat unit) | 208.00
4 | *Oc1cccc(NC(=O)CCCCCC(=O)Nc2ccc(*)cc2)c1 (repeat unit) | 130.00
5 | *c1ccc(Oc2c(C)cc(Cc3cc(C)c(Oc4ccc(-n5c(=O)c6cc7c(=O)n(*)c(=O)c7cc6c5=O)cc4)c(C)c3)cc2C)cc1 (repeat unit) | 299.50
6 | *CCCCCCCCOc1ccc(/C=C2\CC/C(=C\c3ccc(OCCCCCCCCOP(=O)(O*)OCC)c(OC)c3)C2=O)cc1OC (repeat unit) | 62.00
7 | *c1ccc(-c2ccc(-n3c(=O)c4cc5c(=O)n(*)c(=O)c5c(C(F)(F)F)c4c3=O)cc2C)c(C)c1 (repeat unit) | 373.00
8 | *c1ccc(S(=O)(=O)c2ccc(N3C(=O)c4ccc(-c5ccc6c(c5)C(=O)N(*)C6=O)cc4C3=O)cc2)cc1 (repeat unit) | 340.00 ± 14
9 | *CC#CCOC(=O)CCCCCCCCC(=O)O* (repeat unit) | -26.50
10 | *CC(*)c1ccc(COC)cc1 (repeat unit) [Poly(p-methoxymethyl styrene)] | 77 ± 0.6
11 | *OC(C)COC(=O)c1cccc(C(*)=O)c1 (repeat unit) | 77.00
12 | *Nc1ccc(*)cc1OC (repeat unit) | 90.00
13 | *C1CCC(CC2CCC(N3C(=O)C4C5C=CC(C6C(=O)N(*)C(=O)C56)C4C3=O)CC2)CC1 (repeat unit) | 239.00
14 | *CC(*)C(=O)OCCc1ccccc1 (repeat unit) | -3.00
15 | *c1ccc(-c2ccc(N3C(=O)c4ccc(Oc5ccc6c(c5)C(=O)N(*)C6=O)cc4C3=O)cc2)cc1 (repeat unit) | 286.00
16 | *C(C(=O)OC)C(*)C(=O)OC(C)(C)C (repeat unit) | 84.00
17 | *c1cc(Br)c(-c2c(Br)cc(N3C(=O)c4ccc(-c5ccc6c(c5)C(=O)N(*)C6=O)cc4C3=O)cc2C(=O)OCCCCCCCCCCCCCC)c(C(=O)OCCCCCCCCCCCCCC)c1 (repeat unit) | 98.00
18 | */C(C)=C(/*)[Si](C)(C)CC[Si](C)(C)C (repeat unit) | 200.00
19 | *c1ccc(Sc2ccc(Sc3ccc(Sc4ccc(N5C(=O)c6ccc(Oc7ccc8c(c7)C(=O)N(*)C8=O)cc6C5=O)cc4)cc3)cc2)cc1 (repeat unit) | 202.7
20 | *CCCCCCOC(=O)OCCCCCCOC(=O)OCCCCCCOc1ccc(Oc2ccc(O*)cc2)cc1 (repeat unit) | -13.00
21 | */C=C/CCCCCCCCCC(CCCCCCCCC*)COCCOCCOCCOCCOCCCCCC (repeat unit) | -76.00
22 | *c1cccc(-c2nc3cc(-c4ccc5nc(*)c(-c6ccccc6)nc5c4)ccc3nc2-c2ccccc2)c1 (repeat unit) | 319.00

Row | Structure (SMILES) | glass transition temperature [°C]
23 | *C(*)(F)Cl (repeat unit) | 77.00
24 | *Oc1ccc(C(C)(C)c2cc(Cl)c(OC(*)=O)c(Cl)c2)cc1 (repeat unit) | 186.00
25 | *c1c(C)cc(C(c2cc(C)c(N3C(=O)c4ccc(-c5ccc6c(c5)C(=O)N(*)C6=O)cc4C3=O)c(C)c2)c2cccc3ccccc23)cc1C (repeat unit) | 326.00
26 | *CC(O)COc1ccc(C2(C)CC(C)(C)c3cc(O*)ccc32)cc1 (repeat unit) | 120.00
27 | *Oc1ccc(Oc2ccc(C(=O)c3ccc(NC(=O)CCCCCCCCC(=O)Nc4ccc(C(=O)c5ccc(*)cc5)cc4)cc3)cc2)cc1 (repeat unit) | 130.00
28 | *Oc1ccc(C2(c3ccc(Oc4ccc(C(=O)c5ccc(Oc6ccc(C(=O)c7ccc(*)cc7)cc6)cc5)cc4)cc3)c3ccccc3-c3ccccc32)cc1 (repeat unit) | 231.00
29 | *Oc1ccc(C(=O)NNC(=O)c2cccc(C(=O)NNC(=O)c3ccc(OC(=O)c4cccc(C(*)=O)c4)cc3)c2)cc1 (repeat unit) | 180.00
30 | *Oc1ccc(P(C)(=O)c2ccc(Oc3ccc(C(c4ccccc4)(c4ccc(*)cc4)C(F)(F)F)cc3)cc2)cc1 (repeat unit) | 229.00
31 | *Oc1ccc(/N=C(\C)c2ccc(Oc3ccc(C(C)(C)c4ccc(Oc5ccc(/C(C)=N/c6ccc(*)cc6)cc5)cc4)cc3)cc2)cc1 (repeat unit) | 141.00
32 | */C=C/C1CC(*)C(C#N)([Si](C)(C)C)C1 (repeat unit) | 211.00
33 | *C(=O)c1ccc2c(c1)C(=O)N(c1ccc(C3(c4ccc(N5C(=O)c6ccc(*)cc6C5=O)cc4)c4ccccc4-c4ccccc43)cc1)C2=O (repeat unit) | 376.00
34 | *Oc1ccc(CC(NC(=O)CCc2ccc(OC(=O)COCC(*)=O)cc2)C(=O)OCCCCCC)cc1 (repeat unit) | 45.00
35 | *CCCCNC(=O)c1ccc(C(=O)N*)c(Sc2ccccc2)c1 (repeat unit) | 136.00
36 | *Oc1ccc(C(c2ccc(Oc3c(F)c(F)c(COC(c4cccc(C(OCc5c(F)c(F)c(*)c(F)c5F)(C(F)(F)F)C(F)(F)F)c4)(C(F)(F)F)C(F)(F)F)c(F)c3F)cc2)(C(F)(F)F)C(F)(F)F)cc1 (repeat unit) | 113.00
37 | *C/C=C/C[Si](*)(C=C)C=C (repeat unit) | -65.00
38 | *CC(*)CC(C)(C)C (repeat unit) | 190.00
39 | *CCN(*)C(=O)c1cc(F)cc(F)c1F (repeat unit) | 110.00
40 | *c1ccc(OCCN(CC)c2ccc(-c3ccc(C(=C(C#N)C#N)c4ccc(-c5ccc(N(CC)CC)cc5)s4)s3)cc2)c(-c2cc(-c3ccccc3)c3cc(Oc4ccc5nc(*)cc(-c6ccccc6)c5c4)ccc3n2)c1 (repeat unit) | 205.00
41 | *Oc1c(Br)cc(S(=O)(=O)c2cc(Br)c(OC(*)=O)c(Br)c2)cc1Br (repeat unit) | 196.00
42 | *c1ccc2c(c1)C(=O)N(c1ccc(Sc3ccc(Sc4ccc(Sc5ccc(N6C(=O)c7ccc(C(*)(C(F)(F)F)C(F)(F)F)cc7C6=O)cc5)cc4)cc3)cc1)C2=O (repeat unit) | 233.00
43 | *CCCCCCNC(=O)NCc1ccc(CNC(=O)N*)cc1 (repeat unit) | 72.00
44 | *CC(C)S* (repeat unit) [Poly(propylene sulfide) ] | -47 ± 2.7

Row | Structure (SMILES) | glass transition temperature [°C]
45 | *c1ccc(C)c(N2C(=O)c3ccc(-c4ccc5c(c4)C(=O)N(*)C5=O)cc3C2=O)c1 (repeat unit) | 395.00
46 | *CC(*)C#N (repeat unit) [Poly(acrylonitrile)] | 110 ± 12
47 | *c1ccc(Oc2ccc(C3(c4ccc(Oc5ccc(-c6nnc(*)c7c(-c8ccc(F)cc8)c(-c8ccc(F)cc8)c(-c8ccc(F)cc8)c(-c8ccc(F)cc8)c67)cc5)cc4)c4ccccc4-c4ccccc43)cc2)cc1 (repeat unit) | 321.00
48 | *CC(*)c1ccc(C(=O)OCCCCCC)cc1 (repeat unit) | 66.00
49 | *CC(*)(C)C(=O)OCCCCCCCCCCCOc1ccc(/N=N/c2ccc(OC(=O)c3ccc4c(c3)OCCOCCOCCOCCO4)cc2)cc1 (repeat unit) | 59.00
50 | *CC(O)CN(C)S(=O)(=O)c1cccc(S(=O)(=O)N(C)CC(O)COc2ccc(Sc3ccc(O*)cc3)cc2)c1 (repeat unit) | 90.00
51 | *c1ccc(Oc2ccc(-n3nccc3-c3cccc(-c4ccnn4*)c3)cc2)cc1 (repeat unit) | 216.00
52 | *O[Si](*)(CCCOCCOCCOC)CCCOCCOCCOC (repeat unit) | -63.40
53 | *CC(*)c1ccc(COCCC)cc1 (repeat unit) [Poly(p-n-propoxymethyl styrene) ] | 22 ± 1.2
54 | *c1cccc(Cc2cccc(N3C(=O)c4ccc([Si](C)(C)c5ccc6c(c5)C(=O)N(*)C6=O)cc4C3=O)c2)c1 (repeat unit) | 238.00
55 | *Oc1ccc(CC(NC(=O)CCc2ccc(OC(=O)CCCCCCCCC(*)=O)cc2)C(=O)OCCCCCC)cc1 (repeat unit) | 22.00
56 | *CCC(=O)Nc1ccc(NC(=O)CCN2C(=O)c3ccc(C(=O)c4ccc5c(c4)C(=O)N(*)C5=O)cc3C2=O)cc1 (repeat unit) | 237.00
57 | *Nc1cc([N+](=O)[O-])c(NC(=O)CCCCCCCCCCCCC(*)=O)cc1/C=C/c1ccc(N(C)C)cc1 (repeat unit) | 125.00
58 | *c1ccc2c(c1)C(=O)N(c1ccc(Oc3ccc(N4C(=O)c5ccc(C(F)(F)C(F)(F)C(*)(F)F)cc5C4=O)cc3)cc1)C2=O (repeat unit) | 222.00
59 | */C=C/c1cc(OC)c(/C=C/c2ccc(/C=C(\Oc3ccccc3)c3ccc(/C(=C/c4ccc(*)cc4)c4ccc(Oc5ccccc5)cc4)cc3)cc2)cc1OC (repeat unit) | 175.00
60 | *c1ccc(Oc2ccc(C(=O)c3ccc(Oc4ccc(C(=O)c5ccc(Oc6ccc(-c7nc8ccccc8n7-c7ccc(-n8c(*)nc9ccccc98)cc7)cc6)cc5)cc4)cc3)cc2)cc1 (repeat unit) | 223.00
61 | *c1ccc2c(c1)C(=O)N(c1ccc(Oc3ccc(N4C(=O)c5ccc(C(*)O)cc5C4=O)cc3)cc1)C2=O (repeat unit) | 250.00
62 | *CC(*)(CC(=O)OCCCCCCC)C(=O)OCCCCCCC (repeat unit) | -23.00
63 | *CC(=O)Nc1ccc(Oc2ccc(S(=O)(=O)c3ccc(Oc4ccc(NC(=O)CN5C(=O)c6ccc(C(c7ccc8c(c7)C(=O)N(*)C8=O)(C(F)(F)F)C(F)(F)F)cc6C5=O)cc4)cc3)cc2)cc1 (repeat unit) | 241.00
64 | *Oc1ccc(NC(=O)c2cc(C(=O)Nc3ccc(*)cc3)c(C(=O)O)cc2C(=O)O)cc1 (repeat unit) | 207.40
